In PubChem BioAssay AID248 (DTP/NCI, 2004):
Several values for one entry are separate records, joined by “and”; a condition that tells them apart may be missing. Identical values can stand only once. Toxic doses and inconclusive results are not listed. No stated cut-off is given here; in the data, active means T/C of 150% or more; inactive means T/C below 125%.

Test system: L1210 leukemia ip in BDF1 mice, survival T/C
Assay: NCI In Vivo Anticancer Drug Screen. Data for tumor model L1210 Leukemia (intraperitoneal) in B6D2F1 (BDF1) mice
Details: endpoint: mean survival time, higher = longer survival
Procedure, shortened: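 Each compound was tested against a transplantable tumor grown in mice. The endpoint was survival, with treated animals benchmarked against vehicle controls as a simple ratio.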

[1] = dose: 25.0 mg/kg/injection, schedule: Q04DX003 (ip), vehicle: Klucel (hydroxypropylcellulose) (HPC)
[2] = dose: 50.0 mg/kg/injection, schedule: Q04DX003 (ip), vehicle: Klucel (hydroxypropylcellulose) (HPC)
[3] = dose: 100.0 mg/kg/injection, schedule: Q01DX009 (ip), vehicle: saline with Tween-80
[4] = dose: 100.0 mg/kg/injection, schedule: Q04DX003 (ip), vehicle: saline
[5] = dose: 200.0 mg/kg/injection, schedule: Q04DX003 (ip), vehicle: saline
[6] = dose: 100.0 mg/kg/injection, schedule: Q01DX001 (ip), vehicle: saline
[7] = dose: 200.0 mg/kg/injection, schedule: Q01DX001 (ip), vehicle: saline
[8] = dose: 400.0 mg/kg/injection, schedule: Q01DX001 (ip), vehicle: saline
[9] = dose: 100.0 mg/kg/injection, schedule: Q04DX003 (ip), vehicle: acetone
[10] = dose: 200.0 mg/kg/injection, schedule: Q04DX003 (ip), vehicle: acetone

Measured: T/C

COC(=O)[C@H]1[C@H]2C[C@@H]3c4[nH]c5cc(OC)ccc5c4CCN3C[C@H]2C[C@@H](OC(=O)c2cc(OC)c(OC)c(OC)c2)[C@@H]1OC
inactive: dose: 1.0 mg/kg/injection, schedule: Q01DX Z (ip), vehicle: carboxymethylcellulose (CMC) 100 % of control | dose: 1.56 mg/kg/injection, schedule: Q01DX001 (ip), vehicle: other 100 % of control | dose: 1.56 mg/kg/injection, schedule: Q01DX009 (ip), vehicle: saline 111 % of control | dose: 1.56 mg/kg/injection, schedule: Q04DX003 (ip), vehicle: other 95 % of control | dose: 2.0 mg/kg/injection, schedule: Q01DX Z (ip), vehicle: carboxymethylcellulose (CMC) 100 % of control | dose: 3.12 mg/kg/injection, schedule: Q01DX001 (ip), vehicle: other 96 % of control | dose: 3.12 mg/kg/injection, schedule: Q01DX009 (ip), vehicle: saline 109 % of control | dose: 3.12 mg/kg/injection, schedule: Q04DX003 (ip), vehicle: other 95 % of control | dose: 5.0 mg/kg/injection, schedule: Q01DX001 (ip), vehicle: other 92 % of control | dose: 5.25 mg/kg/injection, schedule: Q01DX009 (ip), vehicle: other 98 % of control | dose: 6.25 mg/kg/injection, schedule: Q01DX001 (ip), vehicle: other 96 % of control | dose: 6.25 mg/kg/injection, schedule: Q01DX009 (ip), vehicle: saline 101 % of control | dose: 6.25 mg/kg/injection, schedule: Q04DX003 (ip), vehicle: other 115 % of control | dose: 6.25 mg/kg/injection, schedule: Q04DX003 (ip), vehicle: saline 90 % of control | dose: 9.2 mg/kg/injection, schedule: Q04DX003 (ip), vehicle: other 101 % of control | dose: 10.0 mg/kg/injection, schedule: Q01DX001 (ip), vehicle: other 100 % of control | dose: 12.5 mg/kg/injection, schedule: Q01DX001 (ip), vehicle: carboxymethylcellulose (CMC) 103 % of control | dose: 12.5 mg/kg/injection, schedule: Q01DX009 (ip), vehicle: saline 104 % of control | dose: 12.5 mg/kg/injection, schedule: Q04DX003 (ip), vehicle: saline 108 % of control | dose: 14.0 mg/kg/injection, schedule: Q04DX003 (ip), vehicle: other 88 % of control | dose: 20.0 mg/kg/injection, schedule: Q01DX001 (ip), vehicle: other 97 % of control | dose: 21.0 mg/kg/injection, schedule: Q04DX003 (ip), vehicle: other 95 % of control | dose: 25.0 mg/kg/injection, schedule: Q01DX009 (ip), vehicle: saline 92 % of control | dose: 25.0 mg/kg/injection, schedule: Q04DX003 (ip), vehicle: saline 103 % of control | dose: 40.0 mg/kg/injection, schedule: Q01DX001 (ip), vehicle: other 97 % of control | dose: 80.0 mg/kg/injection, schedule: Q01DX001 (ip), vehicle: other 94 % of control

CC(C)CCNCC(C)(C)OC(=O)c1ccc(N)cc1
inactive: dose: 10.0 mg/kg/injection, schedule: Q01DX001 (ip), vehicle: saline 112 % of control | dose: 20.0 mg/kg/injection, schedule: Q01DX001 (ip), vehicle: saline 100 % of control | dose: 40.0 mg/kg/injection, schedule: Q01DX001 (ip), vehicle: saline 102 % of control

CCN(N=O)C(=O)NC1C(O)OC(CO)C(O)C1O (stereo unspecified)
inactive: dose: 25.0 mg/kg/injection, schedule: Q01DX009 (ip), vehicle: other 100 % of control | dose: 50.0 mg/kg/injection, schedule: Q01DX009 (ip), vehicle: other 118 % of control | dose: 100.0 mg/kg/injection, schedule: Q01DX009 (ip), vehicle: other 113 % of control | dose: 200.0 mg/kg/injection, schedule: Q01DX009 (ip), vehicle: other 112 % of control

Cc1ccc(N)cn1
inactive: dose: 25.0 mg/kg/injection, schedule: Q01DX009 (ip), vehicle: Klucel (hydroxypropylcellulose) (HPC) 97 % of control | [1] 102 % of control | dose: 50.0 mg/kg/injection, schedule: Q01DX009 (ip), vehicle: Klucel (hydroxypropylcellulose) (HPC) 100 % of control | [2] 101 % of control | dose: 100.0 mg/kg/injection, schedule: Q01DX009 (ip), vehicle: Klucel (hydroxypropylcellulose) (HPC) 90 % of control | dose: 100.0 mg/kg/injection, schedule: Q04DX003 (ip), vehicle: Klucel (hydroxypropylcellulose) (HPC) 98 % of control

COc1ccc2c(c1)CCC1C2=CC(=O)/C1=C\[O-].COc1ccc2c(c1)CCC1C2=CC(=O)/C1=C\[O-].[Cu+2] (stereo unspecified)
inactive: dose: 50.0 mg/kg/injection, schedule: Q01DX009 (ip), vehicle: saline with Tween-80 97 % of control | [3] 104 % of control | [4] 92 % of control | [5] 94 % of control

COC(=O)C1=CO[C@H](C)[C@@H]2CN3CCc4c([nH]c5ccccc45)[C@@H]3C[C@H]12
inactive: dose: 17.5 mg/kg/injection, schedule: Q01DX Z (ip), vehicle: carboxymethylcellulose (CMC) 98 % of control

CCOC(=O)C1/C(=N\N=C2\c3c(nnp3N(CCOS(C)(=O)=O)CCOS(C)(=O)=O)C(C(=O)OCC)C(c3ccc(OC(C)=O)cc3)C2C(=O)OCC)c2c(nnp2N(CCOS(C)(=O)=O)CCOS(C)(=O)=O)C(C(=O)OCC)C1c1ccc(OC(C)=O)cc1 (stereo unspecified)
inactive: dose: 50.0 mg/kg/injection, schedule: Q01DX001 (ip), vehicle: saline 103 % of control | [6] 109 % of control | [7] 109 % of control | [8] 107 % of control

O=C(/C=N/O)Nc1ccccc1
inactive: [3] 101 % of control | dose: 200.0 mg/kg/injection, schedule: Q01DX009 (ip), vehicle: saline with Tween-80 101 % of control | dose: 400.0 mg/kg/injection, schedule: Q01DX009 (ip), vehicle: saline with Tween-80 98 % of control

CCOC(=O)Nc1cc(Cl)c([N+](=O)[O-])c(NC(=O)OCC)n1
inactive: dose: 100.0 mg/kg/injection, schedule: Q01DX001 (ip), vehicle: other 102 % of control | dose: 200.0 mg/kg/injection, schedule: Q01DX001 (ip), vehicle: other 91 % of control

C=CCc1cc(CN(CCO)Cc2cc(CC=C)cc(OC)c2O)c(O)c(OC)c1
inactive: dose: 12.5 mg/kg/injection, schedule: Q04DX003 (ip), vehicle: Klucel (hydroxypropylcellulose) (HPC) 95 % of control | [1] 101 % of control | [2] 95 % of control

Clc1nc2cc(Cl)c(Cl)cc2[nH]1
inactive: [9] 95 % of control | [10] 95 % of control

NC(=S)N/N=C/c1c(O)ccc2ccccc12
inactive: dose: 100.0 mg/kg/injection, schedule: Q01DX001 (ip), vehicle: carboxymethylcellulose (CMC) 96 % of control | dose: 200.0 mg/kg/injection, schedule: Q01DX001 (ip), vehicle: carboxymethylcellulose (CMC) 94 % of control | dose: 400.0 mg/kg/injection, schedule: Q01DX001 (ip), vehicle: carboxymethylcellulose (CMC) 94 % of control

CN(N=Nc1ccc(C(=N)N)cc1)C1CCCCC1
inactive: dose: 9.5 mg/kg/injection, schedule: Q01DX001 (ip), vehicle: saline 95 % of control | dose: 19.0 mg/kg/injection, schedule: Q01DX001 (ip), vehicle: saline 98 % of control | dose: 38.0 mg/kg/injection, schedule: Q01DX001 (ip), vehicle: saline 95 % of control

CCCCCCCCC1SC1CCCCCCCC(=O)N(C)c1ccccc1 (stereo unspecified)
inactive: [4] 97 % of control | [5] 99 % of control | dose: 400.0 mg/kg/injection, schedule: Q04DX003 (ip), vehicle: saline 94 % of control

O=c1cc([N+](=O)[O-])n(O)cc1[N+](=O)[O-]
inactive: [6] 102 % of control | [7] 108 % of control | [8] 102 % of control

O=S(=O)(/C=C\c1ccccc1)c1ccccc1
inactive: dose: 50.0 mg/kg/injection, schedule: Q01DX009 (ip), vehicle: saline 102 % of control | dose: 100.0 mg/kg/injection, schedule: Q01DX001 (ip), vehicle: acetone 97 % of control | dose: 100.0 mg/kg/injection, schedule: Q01DX009 (ip), vehicle: saline 97 % of control | [9] 105 % of control | dose: 200.0 mg/kg/injection, schedule: Q01DX001 (ip), vehicle: acetone 106 % of control | dose: 200.0 mg/kg/injection, schedule: Q01DX009 (ip), vehicle: saline 91 % of control | [10] 94 % of control | dose: 400.0 mg/kg/injection, schedule: Q01DX001 (ip), vehicle: acetone 97 % of control

CC1=CC(=O)N(C2=CC(=O)C=CC2=O)/C1=C/C#N
inactive: dose: 12.5 mg/kg/injection, schedule: Q01DX001 (ip), vehicle: Klucel (hydroxypropylcellulose) (HPC) 97 % of control | dose: 25.0 mg/kg/injection, schedule: Q01DX001 (ip), vehicle: Klucel (hydroxypropylcellulose) (HPC) 88 % of control | dose: 50.0 mg/kg/injection, schedule: Q01DX001 (ip), vehicle: Klucel (hydroxypropylcellulose) (HPC) 93 % of control and 89 % of control
